Reference: ChEMBL document CHEMBL4043211, “Synthesis and anti-enterovirus activity of new analogues of MDL-860” (Bioorg Med Chem Lett, 2017)

What was measured:
[1] = test system: Coxsackievirus B1; assay: Antiviral activity against Coxsackievirus B1 infected in new born ICR mouse assessed as increase in mean survival time at 75 mg/kg, sc administered for 12 days; type: functional
[2] = test system: Coxsackievirus B3; assay: Antiviral activity against Coxsackievirus B3 Nancy infected in human Hep2 cells assessed as inhibition of virus-induced cytopathic effect after 48 hrs by neutral red uptake assay; type: functional, cell-based
[3] = Cytotoxicity against human Hep2 cells assessed as decrease in cell viability after 48 hrs by neutral red uptake assay; type: cell-based; conditions: HEp-2 cells
[4] = test system: Coxsackievirus B1; assay: Antiviral activity against Coxsackievirus B1 infected in new born ICR mouse assessed as mortality at 75 mg/kg, sc administered for 12 days (reference value: 100%); type: functional; conditions: Enterovirus B, 288 h
[5] = Selectivity index, ratio of CC50 for human Hep2 cells to IC50 for Poliovirus 1 infected in human Hep2 cells; type: toxicity, cell-based; conditions: HEp-2 cells, read-out: Ratio CC50/IC50
[6] = Selectivity index, ratio of CC50 for human Hep2 cells to IC50 for Coxsackievirus B1 Connecticut 5 infected in human Hep2 cells; type: toxicity, cell-based; conditions: HEp-2 cells, read-out: Ratio CC50/IC50
[7] = test system: Poliovirus 1; assay: Antiviral activity against Poliovirus 1 LSc-2ab infected in human Hep2 cells assessed as inhibition of virus-induced cytopathic effect after 48 hrs by neutral red uptake assay; type: functional, cell-based
[8] = Selectivity index, ratio of CC50 for human Hep2 cells to IC50 for Coxsackievirus B3 Nancy infected in human Hep2 cells; type: toxicity, cell-based; conditions: HEp-2 cells, read-out: Ratio CC50/IC50
[9] = test system: Coxsackievirus B1; assay: Antiviral activity against Coxsackievirus B1 Connecticut 5 infected in human Hep2 cells assessed as inhibition of virus-induced cytopathic effect after 48 hrs by neutral red uptake assay; type: functional, cell-based
[10] = test system: Coxsackievirus B1; assay: Antiviral activity against Coxsackievirus B1 infected in new born ICR mouse assessed as protection index at 75 mg/kg, sc administered for 12 days (reference value: 0%); type: functional
[11] = test system: Coxsackievirus B1; assay: Antiviral activity against Coxsackievirus B1 infected in new born ICR mouse assessed as mortality at 50 mg/kg, sc administered for 12 days (reference value: 100%); type: functional; conditions: Enterovirus B, 288 h
[12] = test system: Coxsackievirus B1; assay: Antiviral activity against Coxsackievirus B1 infected in new born ICR mouse assessed as increase in mean survival time at 50 mg/kg, sc administered for 12 days; type: functional
[13] = test system: Coxsackievirus B1; assay: Antiviral activity against Coxsackievirus B1 infected in new born ICR mouse assessed as protection index at 50 mg/kg, sc administered for 12 days (reference value: 0%); type: functional
[14] = test system: Coxsackievirus B1; assay: Antiviral activity against Coxsackievirus B1 infected in new born ICR mouse assessed as mortality at 25 mg/kg, sc administered for 12 days (reference value: 100%); type: functional; conditions: Enterovirus B, 288 h
[15] = test system: Coxsackievirus B1; assay: Antiviral activity against Coxsackievirus B1 infected in new born ICR mouse assessed as protection index at 25 mg/kg, sc administered for 12 days (reference value: 0%); type: functional
[16] = test system: Coxsackievirus B1; assay: Antiviral activity against Coxsackievirus B1 infected in new born ICR mouse assessed as increase in mean survival time at 25 mg/kg, sc administered for 12 days; type: functional
[17] = Enterovirus B, Nancy, HEp-2, 48 h, read-out: IC50
[18] = Enterovirus C, LSc-2ab, HEp-2, 48 h, read-out: IC50
[19] = Enterovirus B, Connecticut 5, HEp-2, 48 h, read-out: IC50

SMILES | IC50 [2, 17] | CC50 at 48 h [3] | selectivity ratio [5] | selectivity ratio [6] | IC50 [7, 18] | selectivity ratio [8] | IC50 [9, 19] | IC50 [7] | IC50 [9] | IC50 [2] | further results
N#Cc1cc([N+](=O)[O-])ccc1Oc1ccc(Cl)c(Cl)c1 | 2.7 µM | 493 µM | 72.5 | 587 | 6.8 µM | 182 | 0.8 µM |  |  |  | MST [1]: 3 days; mortality at 75 mg/kg [4]: 100%; PI [10]: 0%
Cc1c(Br)cc(Br)c(Oc2ccc([N+](=O)[O-])cc2C#N)c1Br | 29.6 µM | 570 µM |  | 2.2 |  | 19.6 | 256 µM | Not Active |  |  | 
N#Cc1cc([N+](=O)[O-])ccc1Oc1c(Cl)c(Cl)c(Cl)c(Cl)c1Cl | 5.8 µM | 119 µM |  | 10.9 |  | 20.5 | 10.9 µM | Not Active |  |  | 
CC1(C)CC(Nc2ccc([N+](=O)[O-])cc2C#N)CC(C)(C)N1 | 426 µM | 675 µM |  |  |  | 1.5 |  | Not Active | Not Active |  | 
N#Cc1cc([N+](=O)[O-])ccc1Oc1ncn(-c2ccccc2)n1 |  | 571 µM |  | 3 |  |  | 190 µM | Not Active |  | Not Active | 
N#Cc1cc([N+](=O)[O-])ccc1Oc1c(F)cccc1F |  | 355 µM | 52.2 | 507 | 6.8 µM |  | 0.7 µM |  |  | Not Active | mortality at 50 mg/kg [11]: 66.7%; MST [12]: 5.4 days; PI [13]: 33.3%
N#Cc1cc([N+](=O)[O-])ccc1Oc1ccccc1-c1cn2ccccc2n1 |  | 718 µM |  |  |  |  |  | Not Active | Not Active | Not Active | 
COc1ccc(Oc2ccc([N+](=O)[O-])cc2C#N)c(C(C)(C)C)c1 |  | 22 µM |  |  |  |  |  | Not Active | Not Active | Not Active | 
N#Cc1cc([N+](=O)[O-])ccc1Oc1ccc(F)c(F)c1 |  | 320 µM | 118 | 405 | 2.7 µM |  | 0.8 µM |  |  | Not Active | mortality at 50 mg/kg [11]: 50%; MST [12]: 5 days; PI [13]: 50%
N#Cc1cc([N+](=O)[O-])ccc1N1C[C@@H]2C[C@H](C1)c1cccc(=O)n1C2 |  | 492 µM | 2.1 | 3.2 | 234 µM |  | 152 µM |  |  | Not Active | 
N#Cc1cc([N+](=O)[O-])ccc1Oc1c(F)cc(F)cc1F |  | 518 µM | 192 | 690 | 2.7 µM |  | 0.75 µM |  |  | Not Active | mortality at 25 mg/kg [14]: 88.4%; PI [15]: 11.6%; MST [16]: 2.6 days
N#Cc1cc([N+](=O)[O-])ccc1Sc1ccccc1Cl | 9.9 µM | 53.8 µM |  |  |  | 5.4 |  | Not Active | Not Active |  | 
Cc1ccc(C(C)C)c(Oc2ccc([N+](=O)[O-])cc2C#N)c1 |  | 94.3 µM |  | 5.8 |  |  | 16.2 µM | Not Active |  | Not Active | 
